Where “and” joins values, the source holds several entries; their conditions need not be identical. Identical values can stand only once. Like-named read-outs stand apart in the source and are kept apart here. Marks after values point to notes of the source that are not given here.
Tests used:
normal human melanocytes [1] = assay: Melanomodulating effect: intracellular melanine/proteins ratio in normal human melanocytes in monolayer culture (72 h); type: cell-based
Description: The search of a “melanomodulating” effect has been performed in two steps: • melanomodulating effect of the active ingredients taken separately at predetermined concentrations in the cytotoxicity tests. • Melanomodulating effect of the complex, i.e. GABA in admixture with the other ingredients, white mulberry, lemon and lactic acid.
These tests have been performed on a model of normal human melanocytes cultured on monolayer cultures.
Gamma aminobutyric acid, lemon extract and white mulberry extract have been solubilized and directly diluted in the culture medium.
In this method the ratio melanine/proteins is determined as a percentage of the controls.
The effect of a complex containing the active ingredients A (gamma aminobutyric acid), C, D and lactic acid (composition E) has also been evaluated as a comparating element, on the synthesis of melanine in a model of normal human melanocytes cultured in a monolayer culture.
The tested compositions have therafter been directly diluted in the incubation medium for the melanocytes at a concentration of 0.1, 0.5 and 1% (v/v).
Normal human melanocytes have been utilized stemming from a young patient. They have been cultured in a monolayer culture until of a confluence of 80%.
1—Dosage of Melanine: • at the end of the incubation period, the intra cellular content of melanine has been quantified after cellular lysis, using a spectrophotometric measure at 405 nm.
2—Dosage of the Proteins: • at the end of incubation period the proteins contained in the cellular lysates have been determined using a spectrocolometric method based on Coomassie Blue according to the method of Bradford M. (Anal. Biochem. 72 (1976) 248-254).

tyrosinase = target: T1, tyrosinase (Homo sapiens, UniProt P14679); assay: Inhibiting activity on tyrosinase in cultures of normal human melanocytes; type: cell-based
T1 construct: cultures of normal human melanocytes; endogenous in cells; host or cells: normal human melanocytes
T1 sequence (P14679 19-529): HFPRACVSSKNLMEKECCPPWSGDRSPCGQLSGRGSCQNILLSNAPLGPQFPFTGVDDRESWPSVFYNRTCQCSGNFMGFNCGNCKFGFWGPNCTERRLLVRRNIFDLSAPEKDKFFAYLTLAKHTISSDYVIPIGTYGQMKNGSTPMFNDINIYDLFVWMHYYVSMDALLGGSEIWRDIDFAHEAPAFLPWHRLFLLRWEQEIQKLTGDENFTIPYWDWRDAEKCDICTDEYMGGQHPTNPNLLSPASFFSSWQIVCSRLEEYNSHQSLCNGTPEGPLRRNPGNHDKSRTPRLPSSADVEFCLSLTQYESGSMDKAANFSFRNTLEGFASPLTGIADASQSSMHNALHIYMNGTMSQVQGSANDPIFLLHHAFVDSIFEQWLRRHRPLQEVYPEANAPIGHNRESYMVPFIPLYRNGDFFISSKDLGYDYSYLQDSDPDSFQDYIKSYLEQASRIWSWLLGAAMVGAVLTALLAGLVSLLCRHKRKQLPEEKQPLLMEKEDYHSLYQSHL
Description: Gamma aminobutyric acid as well as its salts and derivatives used in such compositions has been studied on isolated cells and namely on cultures of normal human melanocytes. […] The obtained results are a function of the doses what is in favour of a specific effect of gamma-aminobutyric acid on this kind of parameters.

normal human melanocytes [2] = details: for Dose from which a cytotoxic effect is detected (less than 80% of the viable cells still present) / Percentage of viability (vs controls), Mean: human, 72 h
Method: The determination is performed with normal human melanocytes obtained from a young patient. For the performance of the tests, the cells have been cultured until obtention of confluent mono-layers.
As a comparison one has prepared a 10% solution of kojic acid and a 30% solution of lactic acid (composition E).
The tested preparations have been then directly diluted in the incubation medium for the melanocytes.
At the end of the incubation period, the viability of the cells has been evaluated using a spectrophotometric method for dosing the activity of the intracellular phosphatases. According to the method of Yan T. et al. (Anal. Biochem. 24 (1996) 103-108), one doses the p-nitrophenol resulting from the conversion of the phosphate of p-nitrophenol by means of the intracellular phophatases of the viable cells present in the wall of culture.

NCCCC(=O)O [A, gamma aminobutyric acid]
Concentration from which results on ratio melanine/proteins are statistically significant (normal human melanocytes [1]; Step 1, 72 h): 0.1%
Ratio Melanine Proteins (% of the controls), Mean (normal human melanocytes [1]; Step 1, A 0.001% (w/v), 72 h, mean): 101.9 % of the controls
Ratio Melanine Proteins (% of the controls) (normal human melanocytes [1]; Step 1, A 0.001% (w/v), 72 h, single values): 98.8 % of the controls and 108.6 % of the controls and 98.3 % of the controls
Ratio Melanine Proteins (% of the controls), Mean (normal human melanocytes [1]; Step 1, A 0.01% (w/v), 72 h, mean): 96.6 % of the controls
Ratio Melanine Proteins (% of the controls) (normal human melanocytes [1]; Step 1, A 0.01% (w/v), 72 h, single values): 87.0 % of the controls and 101.8 % of the controls and 101.1 % of the controls
Ratio Melanine Proteins (% of the controls), Mean (normal human melanocytes [1]; Step 1, A 0.1% (w/v), 72 h, mean): 74.0* % of the controls
Ratio Melanine Proteins (% of the controls) (normal human melanocytes [1]; Step 1, A 0.1% (w/v), 72 h, single values): 74.3 % of the controls and 76.4 % of the controls and 74.2 % of the controls and 71.3 % of the controls
Intra cellular content of melanine in the cultured cells, result in words (normal human melanocytes [1]; cultured normal human melanocytes): clear decrease
Inhibiting activity on tyrosinase, result in words (tyrosinase): inhibiting activity on tyrosinase
Dose from which a cytotoxic effect is detected (less than 80% of the viable cells still present) (normal human melanocytes [2]): 0.5%

CC(O)C(=O)O (stereo not shown) [E, lactic acid]
Cytotoxicity, result in words (normal human melanocytes [2]): clearly cytotoxic
Dose from which a cytotoxic effect is detected (less than 80% of the viable cells still present) (normal human melanocytes [2]): 0.03%
Percentage of viability (vs controls), Mean (normal human melanocytes [2]; 0.003 % (v/v)): 80.8%
Percentage of viability (vs controls), Mean (normal human melanocytes [2]; 0.03 % (v/v)): 73.2%
Percentage of viability (vs controls), Mean (normal human melanocytes [2]; 0.075 % (v/v)): 70.8%
Percentage of viability (vs controls), Mean (normal human melanocytes [2]; 0.15 % (v/v)): 65.9%
Percentage of viability (vs controls), Mean (normal human melanocytes [2]; 0.3 % (v/v)): 6.2%
Percentage of viability (vs controls), Mean (normal human melanocytes [2]; 0.75 % (v/v)): 2.4%
Percentage of viability (vs controls), Mean (normal human melanocytes [2]; 1.5 % (v/v)): 0.2%
Percentage of viability (vs controls), Mean (normal human melanocytes [2]; 3 % (v/v)): 0.8%

O=c1cc(CO)occ1O [Kojic Acid, Kojic acid]
Ratio melanine/Proteins (% of the controls), Mean (normal human melanocytes [1]; Step 1, Kojic Acid 250 μM in DMSO, 72 h, mean): 77.40* % of the controls
% of the controls (mean ratio melanine/proteins, controls = 100) (normal human melanocytes [1]; Step 2, Kojic Acid 250 μM, 72 h): 84.5 % of the controls
Ratio melanine/Proteins (% of the controls), Mean (normal human melanocytes [1]; Step 2, Kojic Acid 250 μM, 72 h, mean (controls mean 119.2)): 100.8* % of the controls
Ratio melanine/Proteins (% of the controls) (normal human melanocytes [1]; Step 2, Kojic Acid 250 μM, 72 h, single values): 106.3 % of the controls and 93.2 % of the controls and 102.8 % of the controls and 94.1 % of the controls and 97.9 % of the controls
Decrease of the intra cellular content of melanine in the culture cells (normal human melanocytes [1]; Step 2, Kojic acid at 250 μM, 72 h, p<0.05): 15.5%

Source: US20090232757A1, “Use of gamma-amino butyric acid as a depigmenting agent” (priority 2006, published 2009)
